This is an account of results in patent US12098116B2, “Crystalline prostacyclin (IP) receptor agonist and uses thereof” (United Therapeutics Corporation, priority 2022, dated 2024).

The nature of series [1]: Dynamic Vapour Sorption (DVS). The class given is physicochemical. Here is the method:
Approximately, 10 mg of sample was placed into a mesh vapor sorption balance pan and loaded into a DVS-1/DVS Intrinsic/DVS Advantage dynamic vapor sorption balance by Surface Measurement Systems. The sample was subjected to a ramping profile from 40-90% relative humidity (RH) at 10% increments, maintaining the sample at each step until a stable weight had been achieved (dm/dt 0.004%, minimum step length 30 min, maximum step length 500 min) at 25° C. After completion of the sorption cycle, the sample was dried using the same procedure to 0% RH and then a second sorption cycle back to 40% RH. Two cycles were performed. The weight change during the sorption/desorption cycles were plotted, allowing for the hygroscopic nature of the sample to be determined.

Series [2] is described as follows: Solid form conversion on drying or heating, followed by XRPD. Type of series: physicochemical.
For series [3] the following is noted: cited from earlier work.
The conditions of series [4]: cited from earlier work. This is another data set of the same source.
Series [5] is described as follows: Solvent solubility study of ralinepag. The class given is physicochemical. Conditions: thermodynamic from solid. Here is the method: To prepare amorphous material for solubility testing, 330 mg of ralinepag was dissolved in 33 mL tert-butanol (with gentle heating applied via a heatgun) before being split evenly into 33 vials (˜10 mg of ralinepag per sample). […] One vial of solid was analyzed by XRPD to confirm that ralinepag had been rendered amorphous. However, as in Example 2g, a poorly crystalline Pattern 2 was observed. 32 solvents and solvent systems were added to 32×10 mg of lyophilized ralinepag in 50 μL aliquots for the first 300 μL or until complete dissolution was noted. If complete dissolution was not observed, 100 μL aliquots were added thereafter up to 1 mL total solvent. Between each addition, the mixture was manually shaken for a few seconds and if complete dissolution was not apparent, the mixture was heated to about 40° C. and checked again. Where complete dissolution occurred, the solvent was allowed to evaporate at ambient temperature. Where complete dissolution was not observed, the solids were isolated via centrifuge filtration. Recovered solids were analyzed by XRPD.

Series [6] concerns the target IP receptor (Homo sapiens, UniProt P43119). Conditions: head-to-head in vitro; cited from earlier work.
For series [7], the system named is human pulmonary artery smooth muscle cell (PASMC). Conditions: head-to-head in vitro; cited from earlier work.
The conditions of series [8]: healthy volunteer population, cited from earlier work.
Series [9] relates to pulmonary artery. Conditions: head-to-head in vitro; cited from earlier work.

Converted amounts (≈) assume the structure as drawn. Like-named read-outs stand apart in the source and are kept apart here. Bounds are passed on as bounds.

IP receptor, sequence (P43119 whole entry): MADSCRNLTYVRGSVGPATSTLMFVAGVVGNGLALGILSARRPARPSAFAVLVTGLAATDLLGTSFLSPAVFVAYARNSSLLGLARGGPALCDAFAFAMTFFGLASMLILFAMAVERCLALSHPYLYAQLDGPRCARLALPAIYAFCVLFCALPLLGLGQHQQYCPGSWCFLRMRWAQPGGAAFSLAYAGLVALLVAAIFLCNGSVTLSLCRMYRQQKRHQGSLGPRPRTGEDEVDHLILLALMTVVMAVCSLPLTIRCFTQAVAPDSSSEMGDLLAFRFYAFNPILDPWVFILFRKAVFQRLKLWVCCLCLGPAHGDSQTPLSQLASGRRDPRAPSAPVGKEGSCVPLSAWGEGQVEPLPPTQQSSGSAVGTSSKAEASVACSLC

As to `O=C(O)COC[C@H]1CC[C@H](COC(=O)N(c2ccccc2)c2ccc(Cl)cc2)CC1` [Form 1], the Hygroscopic nature entry in series [1] (DVS, 25° C.) is recorded as “non-hygroscopic”. Further, in series [1] (after DVS between 0% and 90% RH), the “XRPD of the solid after DVS analysis” value is given as “unchanged”. The Reversible water uptake in series [1] (between 0% and 90% RH, 25° C.) is given as 0.1 % (w/w).
With `O=C(O)COC[C@H]1CC[C@H](COC(=O)N(c2ccccc2)c2ccc(Cl)cc2)CC1` [Pattern 4], the “Solid form conversion upon drying” value in series [2] (made from DMA/water) is “converts to a predominantly amorphous form with some Form 1 peaks present”; in [2] (made from NMP/water, upon drying (even with air drying)), “converts to Form 1”.
Consider `CCCCC[C@H](O)/C=C/[C@@H]1[C@H]2C/C(=C/CCCC(=O)O)O[C@H]2C[C@H]1O` [epoprostenol], for which the “Stability at room temperature” value in series [3] is “unstable at room temperature”.
In the case of `CC(C)N(CCCCOCC(=O)NS(C)(=O)=O)c1cnc(-c2ccccc2)c(-c2ccccc2)n1` [Selexipag], the “Effect on PVR” value in series [4] (after 17 weeks of treatment) is “reduce PVR”. Besides, in series [4] (in vivo), the “Reduction in a composite morbidity and mortality endpoint” value is 40%.
Consider `O=C(O)COC[C@H]1CC[C@H](COC(=O)N(c2ccccc2)c2ccc(Cl)cc2)CC1` [ralinepag, 2-([(1r,4r)-4-(((4-chlorophenyl)(phenyl)carbamoyloxy)methyl)-cyclohexyl]methoxy)acetic acid], for which the solubility (commonly the dissolved amount per volume that the medium holds) in series [5] (aqueous with cosolvent or surfactant or cyclodextrin, solvent ethanol/water (48:52% v/v), read-out: Estimated Solubility) is less than 10 mg/mL; in series [5] (organic solvent or mixture, in 29 of the 32 solvent systems, poorly crystalline ralinepag, read-out: Solubility, summary of the screen), not below 10 mg/mL; in series [5] (organic solvent or mixture, solvent 1,1-dimethoxymethane, heated to 40° C., lyophilized poorly crystalline material, read-out: Estimated Solubility) it was 50 mg/mL (≈ 116 mM); in [5] (organic solvent or mixture, solvent 1,2-dichloroethene, heated to 40° C., read-out: Estimated Solubility), 200 mg/mL (≈ 463 mM); in series [5] (organic solvent or mixture, solvent 1,4-dioxane, heated to 40° C., read-out: Estimated Solubility) it was 200 mg/mL (≈ 463 mM); in series [5] (organic solvent or mixture, solvent 1-butanol, heated to 40° C., read-out: Estimated Solubility) it was 50 mg/mL (≈ 116 mM). Also, the solubility in [5] (organic solvent or mixture, solvent 1-propanol, heated to 40° C., read-out: Estimated Solubility) is 50 mg/mL (≈ 116 mM); in series [5] (organic solvent or mixture, solvent 2-ethoxyethanol, heated to 40° C., read-out: Estimated Solubility) it was 200 mg/mL (≈ 463 mM); in [5] (organic solvent or mixture, solvent 2-methyl-1-propanol, heated to 40° C., read-out: Estimated Solubility) it was 50 mg/mL (≈ 116 mM); in series [5] (organic solvent or mixture, solvent 2-methyltetrahydrofuran, read-out: Estimated Solubility), 200 mg/mL (≈ 463 mM); in series [5] (organic solvent or mixture, solvent 2-propanol, heated to 40° C., read-out: Estimated Solubility), 50 mg/mL (≈ 116 mM); in [5] (organic solvent or mixture, solvent N,N-dimethylacetamide, read-out: Estimated Solubility) it was 200 mg/mL (≈ 463 mM). The solubility in [5] (organic solvent or mixture, solvent N,N-dimethylformamide, read-out: Estimated Solubility) was 200 mg/mL (≈ 463 mM); in [5] (organic solvent or mixture, solvent N-methyl-2-pyrrolidone, read-out: Estimated Solubility) it was 200 mg/mL (≈ 463 mM); in [5] (organic solvent or mixture, solvent acetone, read-out: Estimated Solubility), 200 mg/mL (≈ 463 mM); in [5] (organic solvent or mixture, solvent acetonitrile, heated to 40° C., read-out: Estimated Solubility), 40 mg/mL (≈ 92.6 mM); in series [5] (organic solvent or mixture, solvent anisole, read-out: Estimated Solubility) it was 200 mg/mL (≈ 463 mM); in series [5] (organic solvent or mixture, solvent benzyl alcohol, read-out: Estimated Solubility) it was 200 mg/mL (≈ 463 mM). In addition, the solubility in series [5] (organic solvent or mixture, solvent butyl acetate, heated to 40° C., read-out: Estimated Solubility) was 50 mg/mL (≈ 116 mM); in series [5] (organic solvent or mixture, solvent dimethylsulfoxide, heated to 40° C., read-out: Estimated Solubility) it was 200 mg/mL (≈ 463 mM); in [5] (organic solvent or mixture, solvent ethanol/water (93:7% v/v), heated to 40° C., read-out: Estimated Solubility), 100 mg/mL (≈ 232 mM); in series [5] (organic solvent or mixture, solvent ethanol/water (98.5:1.5% v/v), read-out: Estimated Solubility) it was 100 mg/mL (≈ 232 mM); in [5] (organic solvent or mixture, solvent ethanol, heated to 40° C., read-out: Estimated Solubility), 100 mg/mL (≈ 232 mM); in [5] (organic solvent or mixture, solvent ethyl acetate, heated to 40° C., read-out: Estimated Solubility), 100 mg/mL (≈ 232 mM). Further, the solubility in series [5] (organic solvent or mixture, solvent heptane, read-out: Estimated Solubility) is less than 10 mg/mL; in series [5] (organic solvent or mixture, solvent isopropyl acetate, heated to 40° C., read-out: Estimated Solubility), 66.7 mg/mL (≈ 154 mM); in [5] (organic solvent or mixture, solvent methanol, heated to 40° C., read-out: Estimated Solubility), 200 mg/mL (≈ 463 mM); in series [5] (organic solvent or mixture, solvent methylethyl ketone, heated to 40° C., read-out: Estimated Solubility), 200 mg/mL (≈ 463 mM); in series [5] (organic solvent or mixture, solvent methylisobutyl ketone, heated to 40° C., read-out: Estimated Solubility), 100 mg/mL (≈ 232 mM); in [5] (organic solvent or mixture, solvent tert-butylmethyl ether, heated to 40° C., read-out: Estimated Solubility), 25 mg/mL (≈ 57.9 mM). The solubility was 200 mg/mL (≈ 463 mM) in series [5] (organic solvent or mixture, solvent tetrahydrofuran, heated to 40° C., read-out: Estimated Solubility); 14.3 mg/mL (≈ 33.1 mM) in series [5] (organic solvent or mixture, solvent toluene, heated to 40° C., read-out: Estimated Solubility); less than 10 mg/mL in series [5] (solvent water, read-out: Estimated Solubility). Also, the “Increase of cellular cAMP levels compared with selexipag” value in [6] is “more potent and efficacious than selexipag”. Also, in series [7], the “Inhibition of human PASMC proliferation compared with selexipag” value is listed as “better inhibition”. Also, the “Variability in plasma concentrations between doses (peak:trough ratio)” value in [8] (compared with selexipag) is on record as “less variability”. The “t1/2 compared with selexipag (and its active metabolite MRE-269)” value in series [8] (single- and multiple-dose studies) is on record as “longer t1/2 than selexipag”. In addition, the “Pulmonary artery vasodilation compared with selexipag” value in series [9] was “improved”.
On to `O=C(O)COC[C@H]1CC[C@H](COC(=O)N(c2ccccc2)c2ccc(Cl)cc2)CC1` [Pattern 2], for which the “Solid form after drying (XRPD)” value in [2] (dried under vacuum at 40° C. for approximately 21 h) is “retained”. In addition, the “Solid form conversion on heating” value in series [2] (on heating) was “converts to Form 1”.
